Data taken from PMC10527924 (Toxicology in vitro : an international journal published in …, 2023).
Where two headings read alike, the source gives them in different places.

Assays:
[1] = test system: EpiDerm-200-X reconstructed human epidermis (RhE)
[2] = test system: excised human skin (EHS); settings: female, 0.61 nmol/μL
[3] = not measured for this paper; no reference given; cited from earlier work
[4] = 0.61 nmol/μL
[5] = test system: EpiDerm-200-X reconstructed human epidermis (RhE); assay: In vitro permeation testing; settings: 5 mm orifice Franz cell, finite dose 6 nmol/cm^2

Row | SMILES | vehicle effect on 6 h cumulative permeation [1] | time of mean peak flux ([1]; human, 0.61 nmol/μL) | 6 h Cumulative Permeation ([1]; human, 0.61 nmol/μL) | 6 h Cumulative Permeation [2] | Log Kow (n-octanol-water partition coefficient) [3] | time of peak flux [4] | 6 h Cumulative Permeation ([4]; 6 h) | time of mean peak flux [5]
1 | Cn1c(=O)c2c(ncn2C)n(C)c1=O [caffeine] | statistically significant decrease | 3 h | 3.32 ± 0.33 nmol/cm^2 | 0.97 ± 0.22 nmol/cm^2 | −0.07 | 2 h | 0.43 ± 0.03 nmol/cm^2 | –
2 | O=C(O)c1ccccc1O [salicylic acid] | did not alter its permeation | – | 0.32 ± 0.05 nmol/cm^2 | 0.18 ± 0.10 nmol/cm^2 | 2.26 | – | – | –
3 | C[C@]12CC[C@H]3[C@@H](CCC4=CC(=O)CC[C@@]43C)[C@@H]1CC[C@@H]2O [testosterone] | – | – | – | – | – | – | – | 2 h
